For one test, the system named is FADD−/− Jurkat cells. Briefly: Necroptosis inhibition assay, TNF-α-induced necroptosis (CellTiter-Glo 2.0). It is filed as cell-based, human. Conditions: TNF-α 15 ng/mL; for Necroptosis inhibition assay (Rescue %) 1 μM: compound 1 μM; for Necroptosis inhibition assay (Rescue %) 10 μM: compound 10 μM. The gist of the method: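 Luminescent ATP measurement gave viability, from which cytotoxicity and necroptosis inhibition rate were derived. Before that, cells (5.0×10^5 cells/mL) saw compound at 0.1, 1 or 10 μM final for 30 minutes at room temperature, then TNF-α (15 ng/mL final) for 20 to 24 hours at 37° C.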

The target in test [1] is T1, MLKL (Homo sapiens, UniProt Q8NB16).
T1 sequence (Q8NB16 1-471): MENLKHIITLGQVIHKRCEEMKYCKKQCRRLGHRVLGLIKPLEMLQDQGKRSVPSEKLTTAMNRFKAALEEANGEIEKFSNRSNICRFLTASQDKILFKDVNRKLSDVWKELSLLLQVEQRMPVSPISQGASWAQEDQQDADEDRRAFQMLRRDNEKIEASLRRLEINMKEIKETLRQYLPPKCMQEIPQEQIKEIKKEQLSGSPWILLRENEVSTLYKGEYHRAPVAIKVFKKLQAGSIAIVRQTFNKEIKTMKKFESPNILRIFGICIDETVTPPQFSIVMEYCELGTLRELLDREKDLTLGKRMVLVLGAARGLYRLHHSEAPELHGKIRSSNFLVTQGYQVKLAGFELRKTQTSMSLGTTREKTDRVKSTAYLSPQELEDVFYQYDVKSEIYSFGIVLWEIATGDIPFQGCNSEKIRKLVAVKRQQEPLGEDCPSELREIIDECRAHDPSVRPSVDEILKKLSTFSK
Briefly: MLKL degradation assay in HepG2 cell line (western blot). The format is cell-based. On the set-up: endogenous in cells; host or cells: HepG2 or HaCaT. Conditions: cell line not given; for Degradation assay (Degradation %) 1 μM: compound 1 μM; for Degradation assay (Degradation %) 10 μM: compound 10 μM. The gist of the method:
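Cells seeded, next day medium swapped for compound-containing medium (final 1 or 10 μM) and incubated 20-24 h at 37 °C. Lysates in RIPA with protease/phosphatase inhibitors were protein-matched by BCA, run on SDS-PAGE and immunoblotted for MLKL.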

Test [2] has as its target T1, MLKL. Description: Measurement of binding affinity with MLKL receptor (competitive binding assay, Kd). Also on record: made in house; host or cells: HEK 293 cell line (T7 phage in E. coli BL21-derived host is also described). The gist of the method: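 HEK 293-expressed, DNA-tagged MLKL; ligand beads blocked with biotin and SeaBlock/1% BSA/0.05% Tween 20/1 mM DTT buffer. Cpd from 111× DMSO stock, 0.9% DMSO final. Eluted kinase by qPCR → Kd.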

The structures appear in SMILES notation.

From US20240252488A1 (KOREA RESEARCH INSTITUTE OF CHEMICAL TECHNOLOGY, priority 2020, published 2024) come the findings set out here.

With `Nc1ncc(-c2cnn(C3CCN(C(=O)CCC4CCN(C(=O)COc5ccc6c(c5)C(=O)N(C5CCC(=O)NC5=O)C6=O)CC4)CC3)c2)nc1C(=O)O[C@@H](C(=O)Nc1ccc(F)cc1)c1ccccc1` (stereo partly drawn) [TDH-416, (R)-2-((4-fluorophenyl)amino)-2-oxo-1-phenylethyl 3-amino-6-(1-(1-(3-(1-(2-((2-(2,6-dioxopiperidin-3-yl)-1,3-dioxoisoindolin-5-yl)oxy)acetyl)piperidin-4-yl)propanoyl)piperidin-4-yl)-1H-pyrazol-4-yl)pyrazine-2-carboxylate], in the test on FADD−/− Jurkat cells (FADD−/− Jurkat cells), the “Necroptosis inhibition assay (Rescue %) 1 μM” value turned out to be 52.88% and the “Necroptosis inhibition assay (Rescue %) 10 μM” value stood at 43.06%. Besides, at MLKL [1], the “Degradation assay (Degradation %) 1 μM” value worked out at 93.24% and the “Degradation assay (Degradation %) 10 μM” value is 93.04%. For the same compound, the Kd on MLKL [2] turned out to be 2.4 nM.
As to `Nc1ncc(-c2cnn(C3CCN(CCOC4CCN(C(=O)C5CN(C6=CC(=O)N(C7CCC(=O)NC7=O)C6=O)C5)CC4)CC3)c2)nc1C(=O)O[C@@H](C(=O)Nc1ccc(F)cc1)c1ccccc1` (stereo partly drawn) [TDH-541, (R)-2-((4-fluorophenyl)amino)-2-oxo-1-phenylethyl 3-amino-6-(1-(1-(2-((1-(1-(1-(2,6-dioxopiperidin-3-yl)-2,5-dioxo-2,5-dihydro-1H-pyrrol-3-yl)azetidine-3-carbonyl)piperidin-4-yl)oxy)ethyl)piperidin-4-yl)-1H-pyrazol-4-yl)pyrazine-2-carboxylate], in the test with FADD−/− Jurkat cells (FADD−/− Jurkat cells), the “Necroptosis inhibition assay (Rescue %) 1 μM” value worked out at 24.95% and the “Necroptosis inhibition assay (Rescue %) 10 μM” value was 24.58%. On MLKL [1], the “Degradation assay (Degradation %) 1 μM” value is recorded as 78.24% and the “Degradation assay (Degradation %) 10 μM” value amounted to 69.17%. The same compound came in with a Kd on MLKL [2] of 0.34 nM.
`Nc1ncc(-c2cnn(C3CCN(CCC4CCN(C(=O)c5cccc(C(=O)NC6CCC(=O)NC6=O)c5)CC4)CC3)c2)nc1C(=O)O[C@@H](C(=O)Nc1ccc(F)cc1)c1ccccc1` (stereo partly drawn) [TDH-543, (R)-2-((4-fluorophenyl)amino)-2-oxo-1-phenylethyl 3-amino-6-(1-(1-(2-(1-(3-((2,6-dioxopiperidin-3-yl)carbamoyl)benzoyl)piperidin-4-yl)ethyl)piperidin-4-yl)-1H-pyrazol-4-yl)pyrazine-2-carboxylate]: in the test on FADD−/− Jurkat cells (FADD−/− Jurkat cells), the “Necroptosis inhibition assay (Rescue %) 1 μM” value was 37.86% and the “Necroptosis inhibition assay (Rescue %) 10 μM” value is given as 26.19%. On MLKL [1], the “Degradation assay (Degradation %) 1 μM” value came to 76.24% and the “Degradation assay (Degradation %) 10 μM” value is listed as 80.46%. On MLKL [2], this compound registered a Kd of 0.23 nM.
As to `Nc1ncc(-c2cnn(C3CCN(C(=O)COC4CCN(C(=O)C5CCN(c6cccc7c6C(=O)N(C6CCC(=O)NC6=O)C7=O)CC5)CC4)CC3)c2)nc1C(=O)O[C@@H](C(=O)Nc1ccc(F)cc1)c1ccccc1` (stereo partly drawn) [TDH-397, (R)-2-((4-fluorophenyl)amino)-2-oxo-1-phenylethyl 3-amino-6-(1-(1-(2-((1-(1-(2-(2,6-dioxopiperidin-3-yl)-1,3-dioxoisoindolin-4-yl)piperidine-4-carbonyl)piperidin-4-yl)oxy)acetyl)piperidin-4-yl)-1H-pyrazol-4-yl)pyrazine-2-carboxylate], in the test on FADD−/− Jurkat cells, the “Necroptosis inhibition assay (Rescue %) 1 μM” value came to 53.83% and the “Necroptosis inhibition assay (Rescue %) 10 μM” value worked out at 37.24%. For the same compound, at MLKL [1], the “Degradation assay (Degradation %) 1 μM” value stood at 87.39% and the “Degradation assay (Degradation %) 10 μM” value is 79.77%. At MLKL [2], this compound displayed a Kd of 2.7 nM.
For `Nc1ncc(-c2cnn(C3CCN(C(=O)C4CCN(C(=O)CC5CCN(c6cccc7c6C(=O)N(C6CCC(=O)NC6=O)C7=O)CC5)CC4)CC3)c2)nc1C(=O)O[C@@H](C(=O)Nc1ccc(F)cc1)c1ccccc1` (stereo partly drawn) [TDH-374, (R)-2-((4-fluorophenyl)amino)-2-oxo-1-phenylethyl 3-amino-6-(1-(1-(1-(2-(1-(2-(2,6-dioxopiperidin-3-yl)-1,3-dioxoisoindolin-4-yl)piperidin-4-yl)acetyl)piperidine-4-carbonyl)piperidin-4-yl)-1H-pyrazol-4-yl)pyrazine-2-carboxylate], in the test on FADD−/− Jurkat cells, the “Necroptosis inhibition assay (Rescue %) 1 μM” value was determined as 39.14% and the “Necroptosis inhibition assay (Rescue %) 10 μM” value was found to be 32.53%. Besides, on MLKL [1], the “Degradation assay (Degradation %) 1 μM” value was 93.73% and the “Degradation assay (Degradation %) 10 μM” value came to 91.38%. On MLKL [2], this compound yielded a Kd of 2.7 nM.
In the case of `Nc1ncc(-c2cnn(C3CCN(CCC4CCN(c5cccc6c5C(=O)N(C5CCC(=O)NC5=O)C6=O)CC4)CC3)c2)nc1C(=O)O[C@@H](C(=O)Nc1ccc(F)cc1)c1ccccc1` (stereo partly drawn) [TDH-202, (R)-2-((4-fluorophenyl)amino)-2-oxo-1-phenylethyl 3-amino-6-(1-(1-(2-(1-(2-(2,6-dioxopiperidin-3-yl)-1,3-dioxoisoindolin-4-yl)piperidin-4-yl)ethyl)piperidin-4-yl)-1H-pyrazol-4-yl)pyrazine-2-carboxylate], in the test on FADD−/− Jurkat cells, the “Necroptosis inhibition assay (Rescue %) 1 μM” value came to 60.16% and the “Necroptosis inhibition assay (Rescue %) 10 μM” value turned out to be 29.13%. Further, on MLKL [1], the “Degradation assay (Degradation %) 1 μM” value stood at 65.39% and the “Degradation assay (Degradation %) 10 μM” value was found to be 53.78%. On MLKL [2], this compound yielded a Kd of 2.1 nM.
For the compound `Nc1ncc(-c2cnn(C3CCN(CC4CN(C(=O)COc5ccc6c(c5)C(=O)N(C5CCC(=O)NC5=O)C6=O)CCO4)CC3)c2)nc1C(=O)OC(C(=O)Nc1ccc(F)cc1)c1ccccc1` (centres unmarked) [TDH-309, 2-((4-fluorophenyl)amino)-2-oxo-1-phenylethyl 3-amino-6-(1-(1-((4-(2-((2-(2,6-dioxopiperidin-3-yl)-1,3-dioxoisoindolin-5-yl)oxy)acetyl)morpholin-2-yl)methyl)piperidin-4-yl)-1H-pyrazol-4-yl)pyrazine-2-carboxylate], in the test with FADD−/− Jurkat cells, the “Necroptosis inhibition assay (Rescue %) 1 μM” value is recorded as 75.1% and the “Necroptosis inhibition assay (Rescue %) 10 μM” value is listed as 78.37%. Moreover, at MLKL [1], the “Degradation assay (Degradation %) 1 μM” value amounted to 76.12% and the “Degradation assay (Degradation %) 10 μM” value is recorded as 77.55%. In addition, the Kd on MLKL [2] came out at 2.2 nM.
As for `Nc1ncc(-c2cnn(C3CCN(C4CC5(CCN(CC6CCN(C(=O)COc7ccc8c(c7)C(=O)N(C7CCC(=O)NC7=O)C8=O)CC6)CC5)C4)CC3)c2)nc1C(=O)O[C@@H](C(=O)Nc1ccc(F)cc1)c1ccccc1` (stereo partly drawn) [TDH-442, (R)-2-((4-fluorophenyl)amino)-2-oxo-1-phenylethyl 3-amino-6-(1-(1-(7-((1-(2-((2-(2,6-dioxopiperidin-3-yl)-1,3-dioxoisoindolin-5-yl)oxy)acetyl)piperidin-4-yl)methyl)-7-azaspiro[3.5]nonan-2-yl)piperidin-4-yl)-1H-pyrazol-4-yl)pyrazine-2-carboxylate], in the test on FADD−/− Jurkat cells (FADD−/− Jurkat cells), the “Necroptosis inhibition assay (Rescue %) 1 μM” value is 58.16% and the “Necroptosis inhibition assay (Rescue %) 10 μM” value worked out at 21.7%. In addition, on MLKL [1], the “Degradation assay (Degradation %) 1 μM” value was determined as 80.37% and the “Degradation assay (Degradation %) 10 μM” value is recorded as 87.27%. On MLKL [2], this compound registered a Kd of 0.53 nM.
On to `Nc1ncc(-c2cnn(C3CCN(CCC4CCN(C(=O)COc5ccc6nnn(C7CCC(=O)NC7=O)c(=O)c6c5)CC4)CC3)c2)nc1C(=O)OC(C(=O)Nc1ccc(F)cc1)c1ccccc1` (centres unmarked) [TDH-293, 2-((4-fluorophenyl)amino)-2-oxo-1-phenylethyl 3-amino-6-(1-(1-(2-(1-(2-((3-(2,6-dioxopiperidin-3-yl)-4-oxo-3,4-dihydrobenzo[d][1,2,3]triazin-6-yl)oxy)acetyl)piperidin-4-yl)ethyl)piperidin-4-yl)-1H-pyrazol-4-yl)pyrazine-2-carboxylate], for which, in the test on FADD−/− Jurkat cells, the “Necroptosis inhibition assay (Rescue %) 1 μM” value is on record as 108.66% and the “Necroptosis inhibition assay (Rescue %) 10 μM” value turned out to be 87.1%. Also, at MLKL [1], the “Degradation assay (Degradation %) 1 μM” value turned out to be 76.09% and the “Degradation assay (Degradation %) 10 μM” value was 71.04%. Binding at MLKL [2] was characterised by a dissociation constant (Kd) of 2.3 nM.
For `Nc1ncc(-c2cnn(C3CCN(CC4CCN(C(=O)COc5cccc6c5C(=O)N(C5CCC(=O)NC5=O)C6=O)CC4)CC3)c2)nc1C(=O)N[C@@H](C(=O)Nc1ccc(F)cc1)c1ccccc1` (stereo partly drawn) [TDH-186, 3-amino-6-(1-(1-((1-(2-((2-(2,6-dioxopiperidin-3-yl)-1,3-dioxoisoindolin-4-yl)oxy)acetyl)piperidin-4-yl)methyl)piperidin-4-yl)-1H-pyrazol-4-yl)-N-((R)-2-((4-fluorophenyl)amino)-2-oxo-1-phenylethyl)pyrazine-2-carboxamide], in that order: 35.73%, 35.74%, 14.8%, 21.54% and 75 nM.
